Reference: ChEMBL document CHEMBL1833794, “Synthesis and biological evaluation of 1-substituted-3-(6-methylpyridin-2-yl)-4-([1,2,4]triazolo[1,5-a]pyridin-6-yl)pyrazoles as transforming growth factor-β type 1 receptor kinase inhibitors” (Bioorg Med Chem Lett, 2011)

Key:
Conditions in all cases: in vivo
[1] = Oral bioavailability in mouse at 50.3 mg/kg; assay type: ADME, organism-based
[2] = Oral bioavailability in rhesus monkey at 5.5 mg/kg; assay type: ADME, organism-based, Macaca mulatta
[3] = Oral bioavailability in rat at 50.3 mg/kg; assay type: ADME, organism-based
[4] = Oral bioavailability in dog at 5.5 mg/kg; assay type: ADME, organism-based, Canis lupus familiaris

Structure (SMILES): Cc1cccc(-c2[nH]c(Cc3cccc(C(N)=O)c3)nc2-c2ccc3nccnc3c2)n1
- bioavailability [1]: 8.95%
- bioavailability [2]: 34.4%
- bioavailability [3]: 11.4%
- bioavailability [4]: 84.9%
